Drawing on patent publication US9487483B2, “Complement pathway modulators and uses thereof” (priority 2012, dated 2016), this text covers IC50 for 31 compounds.

One may read the IC50 as the midpoint of a concentration-inhibition curve.

Sequence of Recombinant human factor D (P00746 26-253): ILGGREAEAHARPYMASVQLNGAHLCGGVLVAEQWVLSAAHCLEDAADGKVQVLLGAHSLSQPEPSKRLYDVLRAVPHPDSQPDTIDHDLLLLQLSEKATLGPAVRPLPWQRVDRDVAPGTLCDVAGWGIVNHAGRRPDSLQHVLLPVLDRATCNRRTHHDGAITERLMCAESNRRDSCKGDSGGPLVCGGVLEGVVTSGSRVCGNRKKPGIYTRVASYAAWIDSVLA

The first test addresses Recombinant human factor D (Homo sapiens (Human), UniProt P00746). Briefly: biochemical. It is filed as biochemical. Particulars: Factor D inhibition data using Method 1; substrate Z-Lys-thiobenzyl, fluorescence readout; read-out: IC50.
Experimental: Human Complement Factor D Assay: Method 1
Recombinant human factor D (expressed in E. coli and purified using standard methods) at 10 nM concentration is incubated with test compound at various concentrations for 1 hour at room temperature in 0.1 M Hepes buffer, pH 7.5, containing 1 mM MgCl2, 1 M NaCl and 0.05% CHAPS. […] IC50 values are calculated from percentage of inhibition of complement factor D-activity as a function of test compound concentration.
`CC(=O)c1nn(CC(=O)N2[C@@H]3C[C@@H]3C[C@H]2C(=O)NC2CC(C)(C)C2)c2cnccc12` [Example 1, (1R,3S,5R)-2-[2-(3-Acetyl-pyrazolo[3,4-c]pyridin-1-yl)-acetyl]-2-aza-bicyclo[3.1.0]hexane-3-carboxylic acid (3,3-dimethyl-cyclobutyl)-amide]: the IC50 amounted to 204 nM.
For `CC(=O)c1nn(CC(=O)N2[C@@H]3C[C@@H]3C[C@H]2C(=O)NC2CC2(C)C)c2ncccc12` (stereo partly drawn) [Example 2, (1R,3S,5R)-2-[2-(3-Acetyl-pyrazolo[3,4-b]pyridin-1-yl)-acetyl]-2-aza-bicyclo[3.1.0]hexane-3-carboxylic acid (2,2-dimethyl-cyclopropyl)-amide], the IC50 stood at 6900 nM.
In the case of `CC(=O)c1nn(CC(=O)N2[C@@H]3C[C@@H]3C[C@H]2C(=O)NC2CC2(F)F)c2ncccc12` (stereo partly drawn) [Example 3, (1R,3S,5R)-2-[2-(3-Acetyl-pyrazolo[3,4-b]pyridin-1-yl)-acetyl]-2-aza-bicyclo[3.1.0]hexane-3-carboxylic acid (2,2-difluoro-cyclopropyl)-amide], the IC50 is 4790 nM.
As to `CC(=O)c1nn(CC(=O)N2[C@@H]3C[C@@H]3C[C@H]2C(=O)N[C@@H]2C[C@@H]2F)c2ncccc12` [Example 4, (1R,3S,5R)-2-[2-(3-Acetyl-pyrazolo[3,4-b]pyridin-1-yl)-acetyl]-2-aza-bicyclo[3.1.0]hexane-3-carboxylic acid ((1R,2S)-2-fluoro-cyclopropyl)-amide], the 50% inhibitory concentration (IC50) stood at 5130 nM.
As for `CC(=O)c1nn(CC(=O)N2[C@@H]3C[C@@H]3C[C@H]2C(=O)NC2CC(C)(C)CC(C)(C)C2)c2ncccc12` [Example 6, (1R,3S,5R)-2-[2-(3-Acetyl-pyrazolo[3,4-b]pyridin-1-yl)-acetyl]-2-aza-bicyclo[3.1.0]hexane-3-carboxylic acid (3,3,5,5-tetramethyl-cyclohexyl)-amide], the concentration for half-maximal inhibition (IC50) came out at 56 nM.
Take `CC(=O)c1nn(CC(=O)N2[C@@H]3C[C@@H]3C[C@H]2C(=O)NC2CCOC(C)(C)C2)c2cnccc12` (stereo partly drawn) [Example 7, (1R,3S,5R)-2-[2-(3-Acetyl-pyrazolo[3,4-c]pyridin-1-yl)-acetyl]-2-aza-bicyclo[3.1.0]hexane-3-carboxylic acid (2,2-dimethyl-tetrahydro-pyran-4-yl)-amide]: the half-inhibitory concentration (IC50) was found to be 1680 nM.
For `CC(=O)c1nn(CC(=O)N2[C@@H]3C[C@@H]3C[C@H]2C(=O)NC2CC(F)(F)C2)c2cnccc12` [Example 8, (1R,3S,5R)-2-[2-(3-Acetyl-pyrazolo[3,4-c]pyridin-1-yl)-acetyl]-2-aza-bicyclo[3.1.0]hexane-3-carboxylic acid (3,3-difluoro-cyclobutyl)-amide], the concentration for half-maximal inhibition (IC50) was 2390 nM.
As for `CC(=O)c1nn(CC(=O)N2[C@@H]3C[C@@H]3C[C@H]2C(=O)NC2CCC(F)(F)CC2)c2cnccc12` [Example 11, (1R,3S,5R)-2-[2-(3-Acetyl-pyrazolo[3,4-c]pyridin-1-yl)-acetyl]-2-aza-bicyclo[3.1.0]hexane-3-carboxylic acid (4,4-difluoro-cyclohexyl)-amide], the concentration for half-maximal inhibition (IC50) was 3020 nM.
On the same count and under the same terms, the figure for `COC(=O)[C@@H]1CC[C@@H](NC(=O)[C@@H]2C[C@H]3C[C@H]3N2C(=O)Cn2nc(C(C)=O)c3cccnc32)C1` [Example 13, (1R,3R)-3-({(1R,3S,5R)-2-[2-(3-Acetyl-pyrazolo[3,4-b]pyridin-1-yl)-acetyl]-2-aza-bicyclo[3.1.0]hexane-3-carbonyl}-amino)-cyclopentane carboxylic acid methyl ester] is 5970 nM; for `COC(=O)[C@@H]1CCC[C@H](NC(=O)[C@@H]2C[C@H]3C[C@H]3N2C(=O)Cn2nc(C(C)=O)c3cccnc32)C1` [Example 14, (1R,3S)-3-({(1R,3S,5R)-2-[2-(3-Acetyl-pyrazolo[3,4-b]pyridin-1-yl)-acetyl]-2-aza-bicyclo[3.1.0]hexane-3-carbonyl}-amino)-cyclohexanecarboxylic acid methyl ester] it is 2430 nM.
On to `NC(=O)n1cc(NC(=O)N2[C@@H]3C[C@@H]3C[C@H]2C(=O)NC2CCCCC2)c2ccccc21` [Example 15, (1R,3S,5R)-2-Aza-bicyclo[3.1.0]hexane-2,3-dicarboxylic acid 2-[(1-carbamoyl-1H-indol-3-yl)-amide]3-cyclohexylamide], for which the IC50 turned out to be 1760 nM.
The same measure, in the same setting: the figure for `NC(=O)n1cc(NC(=O)N2[C@@H]3C[C@@H]3C[C@H]2C(=O)N[C@@H]2C=CCCC2)c2ccccc21` [Example 16, (1R,3S,5R)-2-Aza-bicyclo[3.1.0]hexane-2,3-dicarboxylic acid 2-[(1-carbamoyl-1H-indol-3-yl)-amide] 3-(S)-cyclohex-2-enylamide] is 3150 nM; for `CO[C@H]1CCC[C@@H](NC(=O)[C@@H]2C[C@H]3C[C@H]3N2C(=O)Nc2cn(C(N)=O)c3ccccc23)C1` [Example 21, (1R,3S,5R)-2-Aza-bicyclo[3.1.0]hexane-2,3-dicarboxylic acid 2-[(1-carbamoyl-1H-indol-3-yl)-amide] 3-[((1R,3S)-3-methoxy-cyclohexyl)-amide]] it is 486 nM.
On to `CC1(C)CCC[C@@H](NC(=O)[C@@H]2C[C@H]3C[C@H]3N2C(=O)Nc2cn(C(N)=O)c3ccccc23)C1` [Example 22, (1R,3S,5R)-2-Aza-bicyclo[3.1.0]hexane-2,3-dicarboxylic acid 2-[(1-carbamoyl-1H-indol-3-yl)-amide] 3-[((R)-3,3-dimethyl-cyclohexyl)-amide]], for which the IC50 was 15 nM.
Take `CC[C@H]1CCC[C@@H](NC(=O)[C@@H]2C[C@H]3C[C@H]3N2C(=O)Nc2cn(C(N)=O)c3ccccc23)C1` [Example 23, (1R,3S,5R)-2-Aza-bicyclo [3.1.0]hexane-2,3-dicarboxylic acid 2-[(1-carbamoyl-1H-indol-3-yl)-amide] 3-[((1R,3S)-3-ethyl-cyclohexyl)-amide]]: the concentration for half-maximal inhibition (IC50) was 16 nM.
Still for that read-out and setting: under `CC[C@@H]1CCC[C@H](NC(=O)[C@@H]2C[C@H]3C[C@H]3N2C(=O)Nc2cn(C(N)=O)c3ccccc23)C1` [Example 24, (1R,3S,5R)-2-Aza-bicyclo [3.1.0]hexane-2,3-dicarboxylic acid 2-[(1-carbamoyl-1H-indol-3-yl)-amide] 3-[((1S,3R)-3-ethyl-cyclohexyl)-amide]] stands 401 nM.

Staying with this test, now noted: IC50, Factor D inhibition data using Method 1; substrate Z-Lys-thiobenzyl, fluorescence readout.
As to `COC1(C(F)(F)F)CCCC(NC(=O)[C@@H]2C[C@H]3C[C@H]3N2C(=O)Cn2nc(C(N)=O)c3ccccc32)C1` (single isomer, unassigned) [Example 39], the half-maximal inhibitory concentration (IC50) was 85 nM.
The same measure, in the same setting: the figure for `COC1(C(F)(F)F)CCCC(NC(=O)[C@@H]2C[C@H]3C[C@H]3N2C(=O)Cn2nc(C(N)=O)c3ccccc32)C1` (single isomer, unassigned) [Example 40] is 4470 nM.
On the same count and under the same terms, the figure for `NC(=O)c1nn(CC(=O)N2[C@@H]3C[C@@H]3C[C@H]2C(=O)NC2CCCC3(CC3)C2)c2ccccc12` (single isomer, unassigned) [Example 57] is 1930 nM.
For the compound `NC(=O)c1nn(CC(=O)N2[C@@H]3C[C@@H]3C[C@H]2C(=O)NC2CCCC3(CC3)C2)c2ccccc12` (single isomer, unassigned) [Example 58], the half-maximal inhibitory concentration (IC50) stood at 41 nM.
Consider `CC1(C)CCC(NC(=O)[C@@H]2C[C@H]3C[C@H]3N2C(=O)Cn2nc(C(N)=O)c3ccncc32)C1` (single isomer, unassigned) [Example 67], for which the half-inhibitory concentration (IC50) came out at 318 nM.
The same measure, in the same setting: the figure for `CC1(C)CCC(NC(=O)[C@@H]2C[C@H]3C[C@H]3N2C(=O)Cn2nc(C(N)=O)c3ccncc32)C1` (single isomer, unassigned) [Example 68] is 1920 nM; for `NC(=O)c1nn(CC(=O)N2C[C@H](F)C[C@H]2C(=O)NC2CCCC3(CC3)C2)c2ccccc12` (single isomer, unassigned) [Example 92] it is 2000 nM.
As to `NC(=O)c1nn(CC(=O)N2C[C@H](F)C[C@H]2C(=O)NC2CCCC3(CC3)C2)c2ccccc12` (single isomer, unassigned) [Example 93], the half-inhibitory concentration (IC50) amounted to 92 nM.
As for `CC(=O)c1nn(CC(=O)N2[C@H](C(=O)NC3CCCC4(CC4)C3)C[C@@]3(CO)C[C@@H]23)c2cnccc12` (single isomer, unassigned) [Example 113], the half-maximal inhibitory concentration (IC50) was determined as 90 nM.
On to `CC(=O)c1nn(CC(=O)N2[C@H](C(=O)NC3CCCC4(CC4)C3)C[C@@]3(CO)C[C@@H]23)c2cnccc12` (single isomer, unassigned) [Example 114], for which the IC50 stood at 1280 nM.

The same test, now with this note: read-out: IC50.
In the case of `COC1(C)CCCC(NC(=O)[C@@H]2C[C@H]3C[C@H]3N2C(=O)Cn2nc(C(N)=O)c3ccccc32)C1` (mixture of isomers) [Example 126, 1-(2-((1R,3S,5R)-3-(((1R,3S) and (1S,3R)-3-methoxy-3-methylcyclohexyl)carbamoyl)-2-azabicyclo[3.1.0]hexan-2-yl)-2-oxoethyl)-1H-indazole-3-carboxamide], the IC50 came to 200 nM.
For `CC(=O)c1nn(CC(=O)N2[C@@H]3C[C@@H]3C[C@H]2C(=O)NC2CC(C)CC(C)(C)C2)c2ncccc12` (stereo partly drawn) [Example 5, (1R,3S,5R)-2-[2-(3-Acetyl-pyrazolo[3,4-b]pyridin-1-yl)-acetyl]-2-aza-bicyclo[3.1.0]hexane-3-carboxylic acid (3,3,5-trimethyl-cyclohexyl)-amide], the IC50 was 22 nM.
On the same count and under the same terms, the figure for `CC(=O)c1nn(CC(=O)N2[C@@H]3C[C@@H]3C[C@H]2C(=O)NC2CCCC(F)(F)C2)c2cnccc12` (stereo partly drawn) [Example 9, (1R,3S,5R)-2-[2-(3-Acetyl-pyrazolo[3,4-c]pyridin-1-yl)-acetyl]-2-aza-bicyclo[3.1.0]hexane-3-carboxylic acid (3,3-difluoro-cyclohexyl)-amide] is 1480 nM.
Turning to `CC(=O)c1nn(CC(=O)N2[C@@H]3C[C@@H]3C[C@H]2C(=O)NC2(CO)CCCCC2)c2cnccc12` [Example 10, (1R,3S,5R)-2-[2-(3-Acetyl-pyrazolo[3,4-c]pyridin-1-yl)-acetyl]-2-aza-bicyclo[3.1.0]hexane-3-carboxylic acid (1-hydroxymethyl-cyclohexyl)-amide], the 50% inhibitory concentration (IC50) amounted to 1820 nM.
Same read-out and setting: the figure for `CC(=O)c1nn(CC(=O)N2[C@@H]3C[C@@H]3C[C@H]2C(=O)N[C@@H]2CC[C@@H](C(N)=O)C2)c2ncccc12` [Example 12, (1R,3S,5R)-2-[2-(3-Acetyl-pyrazolo[3,4-b]pyridin-1-yl)-acetyl]-2-aza-bicyclo[3.1.0]hexane-3-carboxylic acid ((1R,3R)-3-carbamoyl-cyclopentyl)-amide] is 12700 nM.
